Data published in ChEMBL document CHEMBL3351251, “3-Arylcoumarins: synthesis and potent anti-inflammatory activity” (Bioorg Med Chem Lett, 2014).

What was measured:
[1] = tested on: RAW264.7; assay: Anti-inflammatory activity in mouse RAW264.7 cells assessed as inhibition of LPS-induced nitric oxide production at 5 mg/L pre-incubated for 2 hrs before LPS stimulation for 24 hrs; format: functional
[2] = Cytotoxicity against LPS-stimulated mouse RAW264.7 cells assessed as cell viability at 5 mg/L incubated for 24 hrs by alamar blue assay; format: cell-based; details: LPS-stimulated RAW264.7 cells, read-out: Activity
[3] = tested on: RAW264.7; assay: Anti-inflammatory activity in mouse RAW264.7 cells assessed as inhibition of LPS-induced nitric oxide production pre-incubated for 2 hrs before LPS stimulation for 24 hrs; format: functional, cell-based

SMILES | inhibition at 5 µg/mL [1] | viability at 24 h, 5 mg/L [2] | IC50 [3]
COc1ccc(OC)c(-c2cc3cc(Br)cc(OC)c3oc2=O)c1 | 45.9% | 93.5% | –
COc1cc(Br)cc2cc(-c3ccc(F)cc3)c(=O)oc12 | 33.9% | 103% | –
COc1cccc(-c2cc3cccc(OC)c3oc2=O)c1 | 91.4% | 34.2% | –
COc1cc(Br)cc2cc(-c3ccc(O)cc3)c(=O)oc12 | 91.3% | 24.4% | –
COc1cccc2cc(-c3ccc(F)cc3)c(=O)oc12 | 47.6% | 127% | –
COc1ccc(-c2cc3cc(Cl)ccc3oc2=O)cc1OC | 31.2% | 105% | –
COc1cccc2cc(-c3ccc(Cl)cc3)c(=O)oc12 | 61.7% | 93.5% | –
COc1ccc(-c2cc3ccccc3oc2=O)cc1 | 59.6% | 93.4% | –
COc1ccccc1-c1cc2cc(Cl)cc(Cl)c2oc1=O | 76.9% | 119% | 8.5 µM
COc1ccccc1-c1cc2cc(Cl)ccc2oc1=O | 65.7% | 115% | –
COc1cccc(-c2cc3cc(Br)cc(OC)c3oc2=O)c1 | 72.3% | 116% | 6.9 µM
COc1cc(Br)cc2cc(-c3cccc(OC(C)=O)c3)c(=O)oc12 | 84.1% | 66.5% | –
COc1ccccc1-c1cc2cc(Br)cc(OC)c2oc1=O | 47.6% | 95.7% | –
COc1cc(Br)cc2cc(-c3cccc(O)c3)c(=O)oc12 | 116% | 28.5% | –
COc1cc(-c2cc3cccc(OC)c3oc2=O)cc(OC)c1OC | 52% | 54.4% | –
COc1cc(-c2cc3cc(Cl)ccc3oc2=O)cc(OC)c1OC | 57.6% | 78.4% | –
COc1ccc(-c2cc3cccc(OC)c3oc2=O)cc1OC | 32.3% | 87.7% | –
COc1cccc2cc(-c3ccccc3)c(=O)oc12 | 78.4% | 64.5% | –

SMILES | inhibition at 5 µg/mL [1] | viability at 24 h, 5 mg/L [2] | IC50 [3]
O=c1oc2ccccc2cc1-c1ccc(F)cc1 | 9.98% | 110% | –
COc1cccc(-c2cc3ccccc3oc2=O)c1 | 49.2% | 48.4% | –
COc1ccc(-c2cc3cc(Cl)ccc3oc2=O)cc1 | 47.5% | 102% | –
COc1cc(Br)cc2cc(-c3cccnc3)c(=O)oc12 | 58.6% | 84.9% | –
O=c1oc2ccc(Cl)cc2cc1-c1ccc(Cl)cc1 | 12.1% | 114% | –
O=c1oc2ccccc2cc1-c1ccccc1 | 69.5% | 104% | –
COc1ccc(-c2cc3ccccc3oc2=O)cc1OC | 47.4% | 47% | –
O=c1oc2c(Cl)cc(Cl)cc2cc1-c1ccccc1 | 53.4% | 104% | –
COc1cccc(-c2cc3cc(Cl)cc(Cl)c3oc2=O)c1 | 36% | 105% | –
COc1ccc(-c2cc3cc(Br)cc(OC)c3oc2=O)cc1 | 44.2% | 99.9% | –
COc1ccc(-c2cc3cc(Cl)cc(Cl)c3oc2=O)cc1OC | 27.3% | 118% | –
COc1cc(/C=C/C(=O)CC(=O)/C=C/c2ccc(O)c(OC)c2)ccc1O [CURCUMIN] | 77% | – | 6.2 µM
COc1ccc(-c2cc3cc(Cl)cc(Cl)c3oc2=O)cc1 | 20.8% | 99.3% | –
COc1cc(Br)cc2cc(-c3ccccc3)c(=O)oc12 | 111% | 29.6% | –
COc1ccc(-c2cc3cccc(OC)c3oc2=O)cc1 | 44.6% | 81.3% | –
COc1ccc(-c2cc3cc(Br)cc(OC)c3oc2=O)cc1OC | 53.5% | 98% | –
COc1cc(-c2cc3cc(Br)cc(OC)c3oc2=O)cc(OC)c1OC | 47.3% | 115% | –
COc1cc(Br)cc2cc(-c3ccc(OC(C)=O)cc3)c(=O)oc12 | 77.8% | 61.7% | –
